# Test results as given in US20050215529A1, “Method of treating oxidative stress-associated conditions with isopentenyl diphosphate” (THE REGENTS OF THE UNIVERSITY OF MICHIGAN, priority 2004, published 2005).
# Legend:
# [1] = test system: human fibroblastoid M1 cells; test: Comet assay, protection against H2O2-induced DNA damage; format: cell-based; conditions: M1 cells; for IC50: AR agonists and isoprenyls, 100 μM H2O2, Comet assay, read-out: IC50 (pM), DNA damage protection; for triggering of DNA damage protection: various concentrations, 100 μM H2O2
# Description: (§1) A single-cell gel electrophoresis (SCGE) assay, known as the “Comer” assay was performed to detect/quantify DNA damage by identifying DNA-strand breakage in individual cells, for example. The assay was performed using a kit commercially-available from Trevigen, Inc., of Gaithersburg, Md., as “CometAssay™.” See P. J. McCarthy et al. (1997) Mutagenesis 12:209-214; A. R. Collins et al. (2001) Biochem. Soc. Trans. 29:337-341. Sub-confluent cells were washed with phosphate buffered saline (PBS) and detached from the tissue culture flasks using a 0.05% trypsin solution. After centrifugation, the cells were washed and re-suspended in serum-free DMEM medium. The cells were divided into Eppendorf tubes (1.5 ml), and centrifuged at 2500 rotations per minutes (rpm) for ten minutes. Signal-modulating agents were added and samples were kept in a 37° C. incubator for thirty minutes. In some experiments, the cells were pre-incubated with various inhibitors for the indicated times at 37° C. At the end of the incubation period with signal-modulating chemicals, the cells were washed with PBS and treated with 100 μM H2O2 in 0.5 ml PBS on ice for twenty minutes. Following the hydrogen peroxide treatment, the cells were immediately microfuged for fifteen seconds. The cells were twice washed with cold PBS, and re-suspended at 1.0×10^5 cells/ml in ice-cold PBS. Five microliter cell suspension were each mixed with 50 μl molten LMAgarose and, thereafter, the mixtures were placed onto slides (CometSlide™).
# (§2) The slides were placed at 4° C. in the dark for ten minutes and subsequently immersed in pre-chilled Lysis Solution at 4° C. for an additional thirty minutes. Following this incubation, excess buffer was tapped off from the slides. Subsequently, the slides were placed in a 50 ml Coplin jar containing alkali buffer for thirty minutes at room temperature in the dark and then immersed in 50 ml of TBE buffer for five minutes. The slides were then placed flat onto a gel tray submerged in TBE buffer in a horizontal electrophoresis apparatus, and aligned equidistant from the electrodes. Electrophoresis was performed at one volt per centimeter (cm) for ten minutes. Following this electrophoresis, the samples were fixed in 100% methanol for five minutes and 100% ethanol for five minutes. After drying, 50 μl of diluted SYBR Green Concentrate was added onto each circle of agarose. Comet tail fluorescence intensity was quantified with a Diagnostic Instruments digitized camera, mounted on a Nikon Eclipse E400 microscope, using Scion Image software. Quantification of comet fluorescence was performed as described in P. J. McCarthy et al. (1997) Mutagenesis 12:209-214. Each data point was derived from 30 to 100 individual cells. The data are shown either in arbitrary fluorescent units, or as % DNA damage protection (i.e., the percent decrement in tail fluorescence intensity with test reagent, relative to the intensity recorded in cells treated with hydrogen peroxide only)±S.E.M.
# A dose response analysis of DNA damage protection also was performed to determine the efficacy of various doses of isopentenyl diphosphate versus 2-chloroadenosine. The analysis was carried out by pre-incubating human fibroblastoid M1 cells for thirty minutes with different concentrations of isopentenyl diphosphate or 2-chloroadenosine prior to incubating the cells with 100 μM H2O2 to induce oxidative stress. Following induction of oxidative stress, DNA damage was quantified using the Comet assay, as described above.
# [2] = test system: human fibroblastoid M1 cells; test: Comet assay, inhibition of 2CA- or IPP-mediated DNA damage protection by antagonists/inhibitors; format: cell-based; conditions: for effect on 2CA-mediated DNA damage protection / effect on IPP-mediated DNA damage protection: M1 cells pre-incubated with antagonist/inhibitor (lactacystin 5 μM, lovastatin 5 μM, GGTI-2147 0.2 μM, FTI-277 1 μM; others various concentrations), then 100 μM H2O2; for effect on 2CA-mediated DNA damage protection: then 2CA; for effect on IPP-mediated DNA damage protection: then IPP; for IC50: AR antagonists, M1 cells, 100 μM H2O2, Comet assay, read-out: IC50 (pM), block of 2CA-mediated DNA damage protection
# Description: as §1, §2
# Specifically, […], human fibroblastoid M1 cells were incubated for thirty minutes in either H-89 or 8-bromoguanosine-3′,5′-cyclic monophosphate (8-Br-cGMP) (B), or for fifteen minutes in SNAP, at different concentrations. […] Following induction of oxidative stress, DNA damage was quantified using the Comet assay, as described above. Shown in FIGS. 14-16 are graphs illustrating the DNA damage protection as function of the molar concentration of H-89 (FIG. 14), 8-Br-cGMP (FIG. 15), and SNAP (FIG. 16).
# In yet another test, human fibroblastoid M1 cells were pre-incubated for fifteen minutes with different concentrations of the A2bAR antagonist, enprofylline (Enpro).
# [3] = test system: A1AR-transfected HEK293 cells; test: Comet assay in A1AR-transfected HEK293 cells; format: cell-based, human; conditions: A1AR-transfected HEK293 cells, 100 μM H2O2
# Description: A single-cell gel electrophoresis (SCGE) assay, known as the “Comer” assay was performed to detect/quantify DNA damage by identifying DNA-strand breakage in individual cells, for example. The assay was performed using a kit commercially-available from Trevigen, Inc., of Gaithersburg, Md., as “CometAssay™.” See P. J. McCarthy et al. (1997) Mutagenesis 12:209-214; A. R. Collins et al. (2001) Biochem. Soc. Trans. 29:337-341. Sub-confluent cells were washed with phosphate buffered saline (PBS) and detached from the tissue culture flasks using a 0.05% trypsin solution. After centrifugation, the cells were washed and re-suspended in serum-free DMEM medium. The cells were divided into Eppendorf tubes (1.5 ml), and centrifuged at 2500 rotations per minutes (rpm) for ten minutes. Signal-modulating agents were added and samples were kept in a 37° C. incubator for thirty minutes. In some experiments, the cells were pre-incubated with various inhibitors for the indicated times at 37° C. At the end of the incubation period with signal-modulating chemicals, the cells were washed with PBS and treated with 100 μM H2O2 in 0.5 ml PBS on ice for twenty minutes. Following the hydrogen peroxide treatment, the cells were immediately microfuged for fifteen seconds. The cells were twice washed with cold PBS, and re-suspended at 1.0×10^5 cells/ml in ice-cold PBS. […]
# The slides were placed at 4° C. in the dark for ten minutes and subsequently immersed in pre-chilled Lysis Solution at 4° C. for an additional thirty minutes. […] Comet tail fluorescence intensity was quantified with a Diagnostic Instruments digitized camera, mounted on a Nikon Eclipse E400 microscope, using Scion Image software. Quantification of comet fluorescence was performed as described in P. J. McCarthy et al. (1997) Mutagenesis 12:209-214. […] The data are shown either in arbitrary fluorescent units, or as % DNA damage protection (i.e., the percent decrement in tail fluorescence intensity with test reagent, relative to the intensity recorded in cells treated with hydrogen peroxide only)±S.E.M. […]
Structure (SMILES),triggering of DNA damage protection [1],effect on 2CA-mediated DNA damage protection [2],effect on IPP-mediated DNA damage protection [2],other results
"CNC(=O)[C@H]1O[C@@H](n2cnc3c(NCc4cccc(I)c4)ncnc32)[C@H](O)[C@@H]1O [IB-MECA, N6-(3-iodobenzyl)adenosine-5′-N-methyluronamide]",failed to transduce the signal,–,–,IC50 [1]: > 1e+07 pM
CC(=O)N[C@@H](C(=O)O)C(C)(C)SN=O (racemic) [SNAP],–,dose-dependent inhibition of 2CA-mediated antioxidative signal,–,–
"CCNC(=O)C1OC(n2cnc3c(N)ncnc32)C(O)C1O (centres unmarked) [NECA, 5′-(N-ethylcarboxyamido)-adenosine]",triggered DNA damage protection,–,–,IC50 [1]: < 1000 pM
"O=S(=O)(NCCNCC=Cc1ccc(Br)cc1)c1cccc2cnccc12 [H-89, N-[2-(p-bromocynnamylamino)ethyl]-5-isoquinolinesulfonamide]",–,dose-dependent inhibition of 2CA-mediated antioxidative signal,the IPP-mediated effect was resistant,–
"CCCn1c(=O)c2[nH]c(C3CCCC3)nc2n(CCC)c1=O [DPCPX, [(3)H]1,3-dipropyl-8-cyclopentylxanthine]",–,failed to block 2CA-mediated DNA damage protection,–,IC50 [2]: > 1e+07 pM
COC(=O)[C@H](CC(C)C)NC(=O)c1ccc(NCc2cnc[nH]2)cc1-c1cccc2ccccc12 [GGTI-2147],–,Neither GGTI-2147 (FIG. 24B) nor FTI-277 (FIG. 25) had a significant effect,effectively blocked IPP-mediated DNA damage protection,–
"CC(C)=CCC/C(C)=C/CC/C(C)=C/CO[P@@](=O)(O)OP(=O)(O)O (stereo in doubt) [FPP, farnesyl diphosphate]",–,–,–,IC50 ([1]; Homo sapiens): > 1e+07 pM
"CCCn1c(=O)[nH]c(=O)c2nc[nH]c21 [Enprofylline, enprofylline]",–,effectively blocked the signal,the IPP-mediated effect was resistant,IC50 [2]: 1.8e+06 pM
"CCCn1c(=O)c2[nH]c(-c3ccc(OCC(=O)NCCN)cc3)nc2n(CCC)c1=O [XAC, xanthine amine congener]",–,effectively blocked the signal,–,IC50 [2]: 3.2e+06 pM
"C=C(C)CCOP(=O)(O)O [IMP, isopentenyl monophosphate]",failed to trigger antioxidative signaling,–,–,IC50 [1]: > 1e+07 pM
"Nc1nc2c(nc(Br)n2[C@@H]2O[C@@H]3COP(=O)(O)O[C@H]3[C@H]2O)c(=O)[nH]1 [8-Br-cGMP, 8-bromoguanosine-3′,5′-cyclic monophosphate]",–,dose-dependent inhibition of 2CA-mediated antioxidative signal,–,–
"CCNC(=O)[C@H]1O[C@@H](n2cnc3c(N)nc(NCCc4ccc(CCC(=O)O)cc4)nc32)[C@H](O)[C@@H]1O [CGS21680, 2-[p-2-(carbonyl-ethyl)-phenyethylamino]-5′-N-ethylcarboxaminoadenosine]",failed to transduce the signal,–,–,IC50 ([1]; Homo sapiens): > 3e+07 pM
CC[C@H](C)C(=O)O[C@H]1C[C@@H](C)C=C2C=C[C@H](C)[C@H](CC[C@@H]3C[C@@H](O)CC(=O)O3)[C@H]21 [lovastatin],–,did not similarly block 2CA-mediated DNA damage protection signaling,completely blocked IPP-mediated DNA damage protection signaling,–
CC(=O)N[C@@H](CSC(=O)[C@]1([C@@H](O)C(C)C)NC(=O)[C@H](C)[C@@H]1O)C(=O)O [lactacystin],–,did not similarly block 2CA-mediated DNA damage protection signaling,blocked IPP-mediated DNA damage protection signaling,–
"CCCCC[C@H](O)/C=C/[C@H]1[C@H](O)CC(=O)[C@@H]1CCCCCCC(=O)O [PGE1, Prostaglandin E1]",induction of resistance to oxidative DNA damage,–,–,–
"Cn1c(=O)c2c(nc(C=Cc3cccc(Cl)c3)n2C)n(C)c1=O [CSC, 8-(3-chlorostyryl) caffeine]",–,failed to block 2CA-mediated DNA damage protection,–,IC50 ([2]; Homo sapiens): > 1e+07 pM
"Nc1ncnc2c1nc(Br)n2[C@@H]1O[C@@H]2COP(=O)(O)O[C@H]2[C@H]1O [8-Br-cAMP, 8-bromo adenosine 3′,5′-cyclic monophosphate]",produced similar protection against oxidative DNA damage,–,–,DNA damage protection response [3]: responded efficiently
"CC(C)=CCC/C(C)=C/CC/C(C)=C/CC/C(C)=C/COP(=O)(O)OP(=O)(O)O [GGPP, geranylgeranyl diphosphate]",effective in triggering antioxidative activity,–,–,IC50 [1]: 660 pM
COC(=O)[C@H](CCSC)NC(=O)c1ccc(NC[C@@H](N)CS)cc1-c1ccccc1 [FTI-277],–,Neither GGTI-2147 (FIG. 24B) nor FTI-277 (FIG. 25) had a significant effect,had no effect on isopentenyl diphosphate activity,–
